The record followed here is EP4781990A1, “PHARMACEUTICAL COMPOSITION CONTAINING HETEROARYL OXYNAPHTHALENE COMPOUND, PREPARATION METHOD THEREFOR, AND USE THEREOF” (Shanghai Runshi Medical Technology Co., Ltd, priority 2023, dated 2025).

Common to all, as to type: physicochemical
Data set [1] in a line: Water sorption and desorption experiment (DVS, hygroscopicity). Particulars: 40-80% relative humidity, 25 °C. As to the method:
In the following examples, the related analysis and detection conditions are as follows: 1. X-ray powder diffractometer (XRPD) • Instrument: BRUKER D8 Advance X-ray powder diffractometer, Germany. • Conditions: Cu-Kα radiation (λ = 1.5418 Å), tube voltage: 40 kV, tube current: 40 mA, 2θ scanning range: 3-40°, scanning step size: 0.02° (2θ), scanning speed: 10 s/step, sample tray: a zero background sample tray. • Method: a sample was spread on a zero background monocrystalline silicon sample tray and was gently pressed using a medicine spoon to be flat for measurement. 2. Chloride • Detection instrument: Dionex ICS-900 ion chromatograph • Column: Dionex Ion Pac AS11-HC anion chromatographic column (specification: 4 × 250 mm) • Determination method: 10 µL of each of the control solution and the sample solution was measured precisely and injected into the ion chromatograph, the chromatogram was recorded, and the chloride ion content was calculated based on peak area according to the external standard method. 3. Dynamic vapor sorption/desorption (DVS) analysis Instrument: DVS Intrinsic plus (SMS, UK). Method: a sample was placed in a tared sample basket, the weight of the sample was automatically measured, and the sample was analyzed according to the parameters in the table below.
The samples obtained in Preparation Example 2 and Preparation Example 3 were investigated for moisture sorption and desorption under the relative humidity of 40-80% using a dynamic vapor sorption (DVS) instrument at a temperature of 25 °C to determine the hygroscopicity of various salt forms. Table 6 Hygroscopicity experimental results of different salt forms of compound (I) (DVS, 40-80%)

Data set [2] is described as follows: Solid stability experiment of compound (A). Particulars: for Crystalline form: XRPD.
Data set [3] is described as follows: Grinding stability experiment of compound (A). As to conditions: XRPD.

With `CNC(=O)c1cccc2cc(Oc3ccnc(NC(=O)c4ccc(N5C[C@@H](C)N[C@@H](C)C5)cc4)c3)ccc12` [Compound (A)], the “Hygroscopicity (%)” value in data set [1] is given as 0.65%. The “Hygroscopicity (in words)” value in data set [1] is reported as “slightly hygroscopic”. For the same molecule, the Purity/% in data set [2] (40 °C/75% RH (open), 7 days) is given as 99.86%; in data set [2] (60 °C (sealed), 7 days), 99.85%; in data set [2] (Initial state, 0 days) it was 99.85%. Further, the Crystalline form entry was “Crystalline form I” in data set [2] (40 °C/75% RH (open), 7 days); “Crystalline form I” in data set [2] (60 °C (sealed), 7 days); “Crystalline form I” in data set [2] (Initial state, 0 days); “Crystalline form I” in data set [2] (room temperature/92.5% RH (open), 10 days). For the same molecule, in data set [3] (ground after dropwise addition of methanol, ethanol, acetone, acetonitrile, or ethyl acetate), the “Crystalline form change after grinding with organic solvent” value is given as “no crystalline form change occurred”. In addition, the “Crystalline form change after grinding” value in data set [3] (mechanically ground using a mortar for 2 min and 5 min) was “no crystalline form change occurred”.
For the molecule Fumarate, the “Hygroscopicity (%)” value in data set [1] came out at 2.11%.
Same read-out and setting: for Phosphate the value was 3.75%.
